pIC50: −log10 of the molar value. Where two headings read alike, the source gives them in different places.
What was measured:
[1] = test system: MLKL phosphorylation in HT29-L23 human colorectal adenocarcinoma cells; assay: MLKL Phosphorylation High-Content Assay; assay type: cell-based; conditions: 6 h, necroptosis induced with TNFα, SMAC mimetic and Z-VAD, read-out: pMLKL (IC50)
Experimental: MLKL Phosphorylation High-Content Assay
HT29-L23 human colorectal adenocarcinoma cells were maintained in RPMI 1640 medium containing 10% heat-inactivated FBS, 1% Pennicilin-Streptomycin and 10 mM HEPES. Cells were seeded at 2,000 cells/well in 384 w tissue culture-treated microplates (Greiner #781090-3B) and incubated at 37° C. (5% CO2/95% O2) for two days. On the day of assay, the cells were treated with test compounds at final concentrations of 6.25 to 0.106 μM for 30 min at 37° C. (5% CO2/95% O2). Necroptopsis was induced using a mixture of human TNFα (35 ng/mL) (Peprotech #300-01A), SMAC mimetic (from US 2015/0322111 A1) (700 nM) and Z-VAD (140 nM) (BD pharmingen #51-6936). Following six hours incubation at 37° C. (5% CO2/95% O2), the cells were fixed with 4% formaldedye (ACROS 11969-0010) for 15 min at room temperature and then permeabilized with phoshpate buffered saline (PBS) containing 0.2% Triton-X-100 for 10 min. MLKL phosporylation was detected using anti-MLKL (phospho S358) antibody (Abcam # ab187091) (1:1000 dilution in Blocking Buffer [PBS supplemented with 0.1% BSA]) with overnight incubation at 4° C. After washing three times in PBS, goat anti-rabbit Alexa-488 (1:1000 dilution) (Life Technologies, A11008) and Hoechst 33342 (Life Technologies, H3570) (1:2000 dilution) in Blocking Buffer were added for 1 h at room temperature. Following another three cycles of washes in PBS, the microplates were sealed, and cellular images were acquired in the Cellomics ArrayScan VTI high-content imager equipped with an X1 camera. Fluorescent images were taken using a 10× objective and the 386-23 BGRFRN_BGRFRN and 485-20 BGRFRN_BGRFRN filter sets, for nuclei and MLKL phosphorylation, respectively. The image sets were analyzed using the Compartmental Analysis Bioapplication software (Cellomics). The level of MLKL phosphorylation was quantified as MEAN_CircRingAvgIntenRatio. […] The IC50 value was defined as the concentration of compound that produces 50% of the maximal inhibition. The data were fitted using the 4-parameter logistic equation to calculate the IC50 and Ymax values.

[2] = biological target: His-GST-TVMV-hRIPK1(1-324) (Homo sapiens (Human), UniProt Q13546); assay: RIPK1 HTRF Binding Assay; conditions: HTRF binding, 1 h at rt; read-out: RIPK1 (IC50)
Experimental: A solution was prepared containing 0.2 nM Anti GST-Tb (Cisbio, 61GSTTLB), 90.6 nM probe and 1 nM His-GST-TVMV-hRIPK1(1-324) in FRET Buffer (20 mM HEPES, 10 mM MgCl2, 0.015% Brij-35, 4 mM DTT, 0.05 mg/mL BSA). Using Formulatrix Tempest, the detection antibody/enzyme/probe solution ([…]) was dispensed into wells of a 1536 plate (Black Low Binding Polystyrene 1536 Plate (Corning, 3724)) containing 10 nL of compounds of interest at appropriate concentration in DMSO. The plate was incubated at rt for 1 h. FRET was measured using the EnVision plate reader (Excitation: 340 nm, Emission: 520 nm/[…]). Total signal (0% inhibition) was calculated from wells containing 10 nL DMSO only.
The coding region of human RIPK1(1-324) flanked by NdeI site at 5′ end and stop codon TGA and XhoI site at 3′ end was codon optimized and gene synthesized at GenScript USA Inc. (Piscataway, N.J.) and subcloned into a modified pFastBacl vector (Invitrogen, Carlsbad, Calif.) with N-terminal His-GST-TVMV tag, to generate His-GST-TVMV-hRIPK1(1-324)-pFB. The fidelity of the synthetic fragment was confirmed by sequencing.

Chain of His-GST-TVMV-hRIPK1(1-324) (Q13546 1-324): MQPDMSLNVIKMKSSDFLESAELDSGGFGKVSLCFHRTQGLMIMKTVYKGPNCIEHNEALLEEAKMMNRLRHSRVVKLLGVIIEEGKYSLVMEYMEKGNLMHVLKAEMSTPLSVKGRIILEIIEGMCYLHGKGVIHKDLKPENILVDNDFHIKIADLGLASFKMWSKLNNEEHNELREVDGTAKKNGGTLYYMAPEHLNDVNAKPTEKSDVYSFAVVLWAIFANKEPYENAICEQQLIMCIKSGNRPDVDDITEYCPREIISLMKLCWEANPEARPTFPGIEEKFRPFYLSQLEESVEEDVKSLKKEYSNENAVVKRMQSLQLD

Which results are given for CC(=O)Nc1cn2nc(-c3cnc(C)c(C(=O)NC(C)c4cc(OC(F)(F)F)ccc4F)c3)ccc2n1 (single isomer, unassigned) [Example 9-1, 5-(2-acetamidoimidazo[1,2-b]pyridazin-6-yl)-N-(1-(2-fluoro-5-(trifluoromethoxy)phenyl)ethyl)-2-methylnicotinamide]?
pIC50 ([1]; Homo sapiens): 7.60; pIC50 [2]: 7.60

CC(=O)Nc1cn2nc(-c3cnc(C)c(C(=O)N[C@H](C)c4cc(OC(F)(F)F)ccc4F)c3)ccc2n1 (single isomer, unassigned) [Example 9-2] was tested. Which pIC50 ([1]; Homo sapiens) did it give?
Its pIC50 is 7.55.

And the pIC50 [2]?
Its pIC50 is 7.51.

[2H]C([2H])([2H])Oc1nc(C)c(-c2ccc3nc(NC(C)=O)cn3n2)cc1C(=O)NC(C)c1ccccc1OC(F)(F)F (single isomer, unassigned) [Example 13-1, 5-{2-acetamidoimidazo[1,2-b]pyridazin-6-yl}-2-(D3)methoxy-6-methyl-N-{1-[2-(trifluoromethoxy)phenyl]ethyl}pyridine-3-carboxamide] was tested. Which pIC50 [1] did it give?
Its pIC50 is < 5.20.

What about the pIC50 [2] of the same molecule?
Its pIC50 is 6.01.

Which results are given for [2H]C([2H])([2H])Oc1nc(C)c(-c2ccc3nc(NC(C)=O)cn3n2)cc1C(=O)NC(C)c1ccccc1OC(F)(F)F (single isomer, unassigned) [Example 13-2, 5-{2-acetamidoimidazo[1,2-b]pyridazin-6-yl}-2-(D3)methoxy-6-methyl-N-{1-[2-(trifluoromethoxy)phenyl]ethyl}pyridine-3-carboxamide]?
pIC50 [1]: 9.00; pIC50 [2]: 8.22

Which results are given for CC(=O)Nc1cn2nc(-c3cnc(C)c(C(=O)N4CCCC(C(O)c5ccc(F)cc5)C4)c3)ccc2n1 (single isomer, unassigned) [Example 354, N-[6-(5-{3-[(4-fluorophenyl)(hydroxy)methyl]piperidine-1-carbonyl}-6-methylpyridin-3-yl)imidazo[1,2-b]pyridazin-2-yl]acetamide]?
pIC50 [1]: 6.65; pIC50 [2]: 6.67

How did the pIC50 [1] turn out when CC(=O)Nc1cn2nc(-c3cnc(C)c(C(=O)N4CCCC(C(O)c5ccc(F)cc5)C4)c3)ccc2n1 (single isomer, unassigned) [Example 355, N-[6-(5-{3-[(4-fluorophenyl)(hydroxy)methyl]piperidine-1-carbonyl}-6-methylpyridin-3-yl)imidazo[1,2-b]pyridazin-2-yl] acetamide] was run?
Its pIC50 is 6.26.

What about the pIC50 [2] of the same molecule?
The pIC50 was 6.65.

CC(=O)Nc1cn2nc(-c3cnc(C)c(CNC(=O)c4cc(OC(F)(F)F)ccc4F)c3)ccc2n1 [Example 1, N-[(5-{2-acetamidoimidazo[1,2-b]pyridazin-6-yl}-2-methylpyridin-3-yl)methyl]-2-fluoro-5-(trifluoromethoxy)benzamide] was tested. Which pIC50 ([1]; Homo sapiens) did it give?
Its pIC50 is 6.62.

What about the pIC50 [2] of the same molecule?
The pIC50 was 7.00.

[2H]C([2H])(NC(=O)c1cc(-c2ccc3nc(NC(=O)CO)cn3n2)cnc1OC)c1cc(F)cc(F)c1OC1CCOCC1 [Example 2, N-{[3,5-difluoro-2-(oxan-4-yloxy)phenyl](D2)methyl}-5-[2-(2-hydroxyacetamido)imidazo[1,2-b]pyridazin-6-yl]-2-methoxypyridine-3-carboxamide] was tested. Which pIC50 ([1]; Homo sapiens) did it give?
Its pIC50 is 8.40.

And the pIC50 [2]?
Its pIC50 is 8.70.

With COCC(=O)Nc1cn2nc(-c3cnc(OC)c(C(=O)NCc4ccccc4OC(F)(F)F)c3)ccc2n1 [Example 3, 2-methoxy-5-[2-(2-methoxyacetamido)imidazo[1,2-b]pyridazin-6-yl]-N-{[2-(trifluoromethoxy)phenyl]methyl}pyridine-3-carboxamide] as the molecule, how does the pIC50 ([1]; Homo sapiens) read?
The pIC50 was 6.53.

And the pIC50 [2]?
Its pIC50 is 7.52.

CCC(=O)Nc1cn2nc(-c3cnc(OC)c(C(=O)NCc4cc(F)cc(F)c4OCC4CC4)c3)ccc2n1 [Example 4, N-{[2-(cyclopropylmethoxy)-3,5-difluorophenyl]methyl}-2-methoxy-5-{2-propanamidoimidazo[1,2-b]pyridazin-6-yl}pyridine-3-carboxamide] was tested. Which pIC50 ([1]; Homo sapiens) did it give?
The pIC50 was 8.00.

And the pIC50 [2]?
The pIC50 was 8.70.

With COc1ncc(-c2ccc3nc(NC(=O)C(C)C)cn3n2)cc1C(=O)NCc1cc(F)cc(F)c1OCC1CC1 [Example 5, N-{[2-(cyclopropylmethoxy)-3,5-difluorophenyl]methyl}-2-methoxy-5-[2-(2-methylpropanamido)imidazo[1,2-b]pyridazin-6-yl]pyridine-3-carboxamide] as the molecule, how does the pIC50 ([1]; Homo sapiens) read?
Its pIC50 is 7.96.

And the pIC50 [2]?
The pIC50 was 8.15.

COc1ncc(-c2ccc3nc(NC(C)=O)c(C)n3n2)cc1C(=O)NCc1cc(OC(F)(F)F)ccc1F [Example 6, 5-{2-acetamido-3-methylimidazo[1,2-b]pyridazin-6-yl}-N-{[2-fluoro-5-(trifluoromethoxy)phenyl]methyl}-2-methoxypyridine-3-carboxamide] was tested. Which pIC50 ([1]; Homo sapiens) did it give?
Its pIC50 is 8.00.

What about the pIC50 [2] of the same molecule?
Its pIC50 is 7.60.

How did the pIC50 ([1]; Homo sapiens) turn out when COc1ncc(-c2ccc3nc(NC(=O)CC#N)cn3n2)cc1C(=O)NCc1cc(F)cc(F)c1OCC1CC1 [Example 7, 5-[2-(2-cyanoacetamido)imidazo[1,2-b]pyridazin-6-yl]-N-{[2-(cyclopropylmethoxy)-3,5-difluorophenyl]methyl}-2-methoxypyridine-3-carboxamide] was run?
The pIC50 was 7.42.

What about the pIC50 [2] of the same molecule?
The pIC50 was 7.85.

How did the pIC50 ([1]; Homo sapiens) turn out when COc1ncc(-c2ccc3nc(NC(=O)C(C)(C)C#N)cn3n2)cc1C(=O)NCc1cc(F)cc(F)c1OCC1CC1 [Example 8, 5-[2-(2-Cyano-2,2-dimethylacetamido)imidazo[1,2-b]pyridazin-6-yl]-N-{[2-(cyclopropylmethoxy)-3,5-difluorophenyl]methyl}-2-methoxypyridine-3-carboxamide] was run?
Its pIC50 is 7.39.

What about the pIC50 [2] of the same molecule?
Its pIC50 is 7.41.

With CCC(=O)Nc1cn2nc(-c3cnc(OC)c(C(=O)NCc4cc(OC(F)(F)F)ccc4F)c3)ccc2n1 [Example 10, N-{[2-fluoro-5-(trifluoromethoxy)phenyl]methyl}-2-methoxy-5-{2-propanamidoimidazo[1,2-b]pyridazin-6-yl}pyridine-3-carboxamide] as the molecule, how does the pIC50 ([1]; Homo sapiens) read?
The pIC50 was 7.48.

And the pIC50 [2]?
The pIC50 was 7.96.

With COc1ncc(-c2ccc3nc(NC(=O)C(C)C)cn3n2)cc1C(=O)NCc1cc(OC(F)(F)F)ccc1F [Example 11, N-{[2-fluoro-5-(trifluoromethoxy)phenyl]methyl}-2-methoxy-5-[2-(2-methylpropanamido)imidazo[1,2-b]pyridazin-6-yl]pyridine-3-carboxamide] as the molecule, how does the pIC50 ([1]; Homo sapiens) read?
Its pIC50 is 7.05.

What about the pIC50 [2] of the same molecule?
Its pIC50 is 7.70.

What does the source list for CC(=O)Nc1cn2nc(-c3cnc(Cl)c(C(=O)NCc4cc(OC(F)(F)F)ccc4F)c3)ccc2n1 [Example 12, 2-chloro-5-{2-acetamidoimidazo[1,2-b]pyridazin-6-yl}-N-{[2-fluoro-5-(trifluoromethoxy)phenyl]methyl}pyridine-3-carboxamide]?
pIC50 ([1]; Homo sapiens): 7.57; pIC50 [2]: 8.30

[2H]C([2H])([2H])Oc1ncc(-c2ccc3nc(NC(C)=O)cn3n2)cc1C(=O)NCc1ccccc1OC(F)(F)F [Example 14, 5-{2-acetamidoimidazo[1,2-b]pyridazin-6-yl}-2-(D3)methoxy-N-{[2-(trifluoromethoxy)phenyl]methyl}pyridine-3-carboxamide] was tested. Which pIC50 ([1]; Homo sapiens) did it give?
The pIC50 was 7.16.

And the pIC50 [2]?
Its pIC50 is 7.48.

COc1ncc(-c2ccc3nc(NC(=O)C(C)(C)O)cn3n2)cc1C(=O)NCc1cccc(F)c1OCC1CC1 [Example 15, N-{[2-(cyclopropylmethoxy)-3-fluorophenyl]methyl}-5-[2-(2-hydroxy-2-methylpropanamido)imidazo[1,2-b]pyridazin-6-yl]-2-methoxypyridine-3-carboxamide] was tested. Which pIC50 ([1]; Homo sapiens) did it give?
Its pIC50 is 6.70.

What about the pIC50 [2] of the same molecule?
The pIC50 was 7.08.

How did the pIC50 ([1]; Homo sapiens) turn out when CC(=O)Nc1cn2nc(-c3cc(C(=O)NCc4cc(F)cc(F)c4OCC4CC4)cnc3C)ccc2n1 [Example 16, N-{[2-(cyclopropylmethoxy)-3,5-difluorophenyl]methyl}-5-{2-acetamidoimidazo[1,2-b]pyridazin-6-yl}-6-methylpyridine-3-carboxamide] was run?
Its pIC50 is 8.30.

And the pIC50 [2]?
The pIC50 was 8.40.
